Laboratory results: paper PMC10380348 (2023)

Test system: MnG4C1 (DNA, G4) AGGGGGGGAGTTAGGGCGCACGTTAGGGGTGCTATTAGGG
Assay: ThT fluorescence light-up, 492 nm
Settings: 50 mM Tris-HCl pH 7.5, room temperature, 3 µM ThT, 1 mM aptamer

What does the source list for Cc1ccc2c(c1)sc(-c1ccc(N(C)C)cc1)[n+]2C?
binding (K+ 0-30 mM): yes; binding (Mn2+ 0-100 µM): yes
